Source: patent publication US6730792B2, “β3 adrenergic agonists” (Eli Lilly and Company, priority 2000, dated 2004)

Biological target: T1, human β3 adrenergic receptor (Homo sapiens, UniProt P13945)
T1 construct: expressed in transfected cells; host or cells: DXB-11 Chinese hamster ovary (CHO) cell line, stably transfected (phd expression vector)
Experiment: whole cell receptor coupled c-AMP assay, human β3 receptor in CHO cells (EC50, Emax relative to isoproterenol)
Type: cell-based
Settings: Emax ± standard error of the mean; average of at least 3 runs except where n = 1; compound tested in the isolated form listed
Excerpt: The genes encoding the human β1-adrenergic receptor (Frielle et al., Proc. Natl. Acad. Sci., 84:7920-7924, 1987), the human β2-adrenergic receptor (Kobika et al., Proc. Natl. Acad. Sci., 84:46-50, 1987, Emorine et al., Proc. Natl. Acad. Sci., 84:6995-6999, 1987) and the human β3 adrenergic receptor (Granneman et al., Molecular Pharmacology, 44(2):264-70, 1993) are individually subcloned into a phd expression vector (Grinnell et al., Bio/Technology, 5:1189-1192, 1987) and transfected into the DXB-11 Chinese hamster ovary (CHO) cell line by calcium phosphate precipitation methodology. The stably transfected cells are grown to 95% confluency in 95% Dulbecco's modified Eagles Medium (DMEM), 5% fetal bovine serum and 0.01% proline. Media is removed and the cells are washed with phosphate buffered (pH 7.4) saline (without magnesium and calcium). Cells are then lifted using an enzyme free cell dissociation solution (Specialty Media, Lavallette, N.J.) and pelleted by centrifugation.
Cells from each of the above cell lines are resuspended and added (20,000/well) to a 96-well plate. Cells are incubated at 37° C. with representative compounds of the invention for 20 minutes in buffer (Hank's balanced salt solution, 10 mM HEPES, 0.1% BSA, 1 mM L-ascorbic acid, 0.2% dimethyl sulfoxide, 1 mm 3-isobutyl-1-methylxanthine, pH 7.4). After halting the incubation with quench buffer (50 mM Na Acetate, 0.25% Triton X-100, pH 5.8), the c-AMP level is quantified by scintillation proximity assay (SPA) using a modification of the commercially available c-AMP kit (Amersham, Arlington Heights, Ill.) with rabbit anti-cAMP antibody (ICN Biomedicals, Aurora, Ohio) for the kit.
Sigmoidal dose response curves, from the whole cell receptor coupled c-AMP assay are fit to a four parameter logistic equation using non linear regression: y=(a−d)/(1+(Dose/c)^b)+d where a and d are responses at zero and maximal dose, b is the slope factor and c is the EC50 as previously described (DeLean et al., Am. J. Physiol., 235, E97-E102, 1978). EC50 is assessed as the concentration producing 50% of the maximum response to each agonist.
Isoproterenol is accepted in the art as a non-selective β3 agonist and is widely used as a comparator in evaluating the activity of compounds. See Trends in Pharm. Sci., 15:3, 1994. The % intrinsic activity (Emax) of representative compounds of the invention is assessed relative to isoproterenol by the compound's maximal response divided by the isoproterenol maximal response times 100.

T1 sequence (P13945 whole entry): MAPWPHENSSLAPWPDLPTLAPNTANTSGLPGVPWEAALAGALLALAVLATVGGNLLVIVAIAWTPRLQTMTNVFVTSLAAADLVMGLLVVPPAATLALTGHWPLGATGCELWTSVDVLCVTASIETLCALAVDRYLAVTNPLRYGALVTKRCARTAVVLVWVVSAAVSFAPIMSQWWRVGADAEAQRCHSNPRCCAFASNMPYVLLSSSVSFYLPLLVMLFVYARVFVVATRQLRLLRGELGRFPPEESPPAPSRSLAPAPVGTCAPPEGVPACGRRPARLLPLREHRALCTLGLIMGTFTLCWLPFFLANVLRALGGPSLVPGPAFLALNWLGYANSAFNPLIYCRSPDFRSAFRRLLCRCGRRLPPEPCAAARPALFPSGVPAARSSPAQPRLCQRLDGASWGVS

Compound	Emax (%) ± SEM
CC(C)(Cc1ccc(Oc2ccccn2)cc1)NC[C@H](O)COc1ccccc1-c1cccs1.O=C(O)C(F)(F)F [Example 1]	58.1 ± 2.6%
CC(C)(Cc1ccc(Oc2ccccn2)cc1)NC[C@H](O)COc1ccccc1-c1ccno1.O=C(O)C(F)(F)F [Example 2]	43.6 ± 9.7%
Cn1nccc1-c1ccccc1OC[C@@H](O)CNC(C)(C)Cc1ccc(Oc2ccc(C#N)cn2)cc1 [Example 3]	<10%
Cn1ccc(-c2ccccc2OC[C@@H](O)CNC(C)(C)Cc2ccc(Oc3ncccc3C#N)cc2)n1 [Example 4]	55.0 ± 1.3%
CC(C)(Cc1ccc(Oc2ccc(C#N)cn2)cc1)NC[C@H](O)COc1ccccc1-c1cccs1 [Example 5]	66.1 ± 4.8%
CC(C)(Cc1ccc(Oc2ccc(C#N)cn2)cc1)NC[C@H](O)COc1ccccc1-c1nccs1 [Example 6]	58.7 ± 1.8%
CC(C)(Cc1ccc(Oc2ccc(C#N)cn2)cc1)NC[C@H](O)COc1ccccc1-c1ccno1 [Example 7]	48.8 ± 2.5%
CC(C)(Cc1ccc(Oc2ccc(C#N)cn2)cc1)NC[C@H](O)COc1ccccc1-c1ccn[nH]1 [Example 8]	33.7 n = 1%
CC(C)(Cc1ccc(Oc2ccc(C#N)cn2)cc1)NC[C@H](O)COc1ccccc1-c1cc2ccccc2[nH]1 [Example 9]	23.7 ± 10.0%
CC(C)(Cc1ccc(Oc2ccc(C#N)cn2)cc1)NC[C@H](O)COc1ccccc1-c1ccncn1 [Example 10]	35.1 ± 0.9%
CC(C)(Cc1ccc(Oc2ccc(C#N)cn2)cc1)NC[C@H](O)COc1ccccc1N1CCCC1=O [Example 11]	18.0 ± 6.5%
CC(C)(Cc1ccc(Oc2ccc(C#N)cn2)cc1)NC[C@H](O)COc1ccccc1-c1ccon1.Cl [Example 12]	64.8 ± 6.3%
CC(C)(Cc1ccc(Oc2ccc(C#N)cn2)cc1)NC[C@H](O)COc1ccccc1-c1cnco1.Cl [Example 13]	54.8 ± 1.7%
Cn1nccc1-c1ccccc1OC[C@@H](O)CNC(C)(C)Cc1ccc(Oc2ccc(C(N)=O)cn2)cc1 [Example 14]	16.9 n = 1%
Cn1ccc(-c2ccccc2OC[C@@H](O)CNC(C)(C)Cc2ccc(Oc3ncccc3C(N)=O)cc2)n1 [Example 15]	70.9 ± 3.0%
CC(C)(Cc1ccc(Oc2ccc(C(N)=O)cn2)cc1)NC[C@H](O)COc1ccccc1-c1cccs1 [Example 16]	67.6 ± 4.7%
CC(C)(Cc1ccc(Oc2ccc(C(N)=O)cn2)cc1)NC[C@H](O)COc1ccccc1-c1nccs1 [Example 17]	62.9 ± 2.2%
CC(C)(Cc1ccc(Oc2ccc(C(N)=O)cn2)cc1)NC[C@H](O)COc1ccccc1-c1ccno1 [Example 18]	49.1 ± 2.9%
CC(C)(Cc1ccc(Oc2ccc(C(N)=O)cn2)cc1)NC[C@H](O)COc1ccccc1-c1ccn[nH]1 [Example 19]	31.3 n = 1%
CC(C)(Cc1ccc(Oc2ccc(C(N)=O)cn2)cc1)NC[C@H](O)COc1ccccc1-c1cc2ccccc2[nH]1 [Example 20]	30.4 ± 2.5%
CC(C)(Cc1ccc(Oc2ncccc2C(N)=O)cc1)NC[C@H](O)COc1ccccc1-c1cc2ccccc2[nH]1 [Example 21]	48.0 ± 2.0%
CC(C)(Cc1ccc(Oc2ccc(C(N)=O)cn2)cc1)NC[C@H](O)COc1ccccc1N1CCCC1=O [Example 22]	22.0 ± 5.3%
CC(C)(Cc1ccc(Oc2ccc(C(N)=O)cn2)cc1)NC[C@H](O)COc1ccccc1N1CCOCC1.Cl.Cl [Example 23]	29.9 ± 3.2%
CC(C)(Cc1ccc(Oc2ccc(C(N)=O)cn2)cc1)NC[C@H](O)COc1ccccc1N1CCCCC1.Cl.Cl [Example 24]	17.3 ± 3.2%
CC(C)(Cc1ccc(Oc2ccc(C(N)=O)cn2)cc1)NC[C@H](O)COc1ccccc1N1CCNCC1.Cl.Cl.Cl [Example 25]	13.7 ± 3.5%

Compound	Emax (%) ± SEM
CC(C)(Cc1ccc(Oc2ccc(C(N)=O)cn2)cc1)NC[C@H](O)COc1ccccc1-c1nc2ccccc2o1 [Example 26]	41.4 ± 6.6%
CC(C)(Cc1ccc(Oc2ccc(C(N)=O)cn2)cc1)NC[C@H](O)COc1ccccc1-c1nc2ccccc2s1 [Example 27]	20.8 ± 8.5%
CC1(C)COC(c2ccccc2OC[C@@H](O)CNC(C)(C)Cc2ccc(Oc3ccc(C(N)=O)cn3)cc2)=N1 [Example 28]	83.4 ± 7.2%
CC(C)(Cc1ccc(Oc2ccc(C(N)=O)cn2)cc1)NC[C@H](O)COc1ccccc1-n1cccc1.Cl [Example 29]	48.4 ± 5.9%
CC(C)(Cc1ccc(Oc2ccc(C(N)=O)cn2)cc1)NC[C@H](O)COc1ccccc1-c1nnco1 [Example 30]	51.7 ± 2.7%
CC(C)(Cc1ccc(Oc2ccc(C(N)=O)cn2)cc1)NC[C@H](O)COc1cc(Cl)ccc1-c1nnco1 [Example 31]	12.1 n = 1%
CC(C)(Cc1ccc(Oc2ccc(C(N)=O)cn2)cc1)NC[C@H](O)COc1ccccc1-c1ccon1.Cl [Example 32]	54.2 ± 5.0%
CC(C)(Cc1ccc(Oc2ccc(C(N)=O)cn2)cc1)NC[C@H](O)COc1ccccc1-c1ccnc(N)n1 [Example 33]	26.2 ± 4.3%
CC(C)(Cc1ccc(Oc2ccc(C(N)=O)cn2)cc1)NC[C@H](O)COc1cccc(-c2cc[nH]n2)c1 [Example 34]	<10%
CC(C)(Cc1ccc(Oc2ccc(C(N)=O)cn2)cc1)NC[C@H](O)COc1cccc(-c2ccno2)c1 [Example 35]	28.9 n = 1%
CC(C)(Cc1ccc(Oc2ccc(C(N)=O)cn2)cc1)NC[C@H](O)COc1ccc(-c2ccno2)cc1 [Example 36]	17.5 n = 1%
CC(C)(Cc1ccc(Oc2ccc(C(N)=O)cn2)cc1)NC[C@H](O)COc1cccc(-c2ccnc(N)n2)c1 [Example 38]	20.5 n = 1%
CC(C)(Cc1ccc(Oc2ccc(C(N)=O)cn2)cc1)NC[C@H](O)COc1ccccc1C1=CC(=O)OC1.Cl [Example 41]	33.5 ± 4.2%
CC(C)(Cc1ccc(Oc2ccc(C(N)=O)cn2)cc1)NC[C@H](O)COc1ccccc1-c1nncs1.O=C(O)C(=O)O [Example 42]	43.3 ± 2.7%
CC(C)(Cc1ccc(Oc2ccc(C(N)=O)cn2)cc1)NC[C@H](O)COc1ccccc1-c1ccoc1.Cl [Example 43]	61.9 ± 2.5%
CC(C)(Cc1ccc(Oc2ccc(C(N)=O)cn2)cc1)NC[C@H](O)COc1ccccc1-c1csnn1.O=C(O)C(=O)O [Example 44]	22.1 ± 3.3%
CC(C)(Cc1ccc(Oc2ccc(C(N)=O)cn2)cc1)NC[C@H](O)COc1ccccc1-c1ncco1 [Example 45]	66.5 ± 3.9%
CC(C)(Cc1ccc(Oc2ccc(C(N)=O)cn2)cc1)NC[C@H](O)COc1ccccc1-c1cnco1.Cl [Example 46]	64.7 ± 1.3%
CC(C)(Cc1ccc(Oc2ccc(C(N)=O)cn2)cc1)NC[C@H](O)COc1ccccc1-n1cccn1.Cl [Example 47]	35.5 ± 5.5%
Cn1nccc1-c1ccccc1OC[C@@H](O)CNC(C)(C)Cc1ccc(Oc2ncccc2C#N)cc1 [Example 48]	14.4 n = 1%
Cn1ccc(-c2ccccc2OC[C@@H](O)CNC(C)(C)Cc2ccc(Oc3ccc(C#N)cn3)cc2)n1 [Example 49]	59.1 n = 1%
CC(C)(Cc1ccc(Oc2ncccc2C#N)cc1)NC[C@H](O)COc1ccccc1-c1cccs1 [Example 50]	78.9 ± 2.5%
CC(C)(Cc1ccc(Oc2ncccc2C#N)cc1)NC[C@H](O)COc1ccccc1-c1cccs1.Cl [Example 51]	74.1 ± 3.3%
CC(C)(Cc1ccc(Oc2ncccc2C#N)cc1)NC[C@H](O)COc1ccccc1-c1nccs1 [Example 52]	70.1 ± 3.3%
